Reference: ChEMBL document CHEMBL1201862, “PubChem BioAssay data set” (2004)
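Values below derive from 48-hour exposures of cells grown in 96-well plates, with endpoints linearly interpolated between the two concentrations bracketing the appropriate inhibition level. Abbreviation: GI50, concentration required for 50% inhibition of growth.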 The source made the active and inactive calls. No stated cut-off is given here; in the data, active = GI50 up to about 1.1 µM and inactive = higher.

How the values were obtained:
Assay in all cases: inhibition of tumour cell growth, NCI panel, 48 h
UACC-257 = tested on: UACC-257
NCI-H522 = tested on: NCI-H522
U-251 = tested on: U-251
SNB-19 = tested on: SNB-19
Malme-3M = tested on: Malme-3M
HCC 2998 = tested on: HCC 2998
SK-MEL-2 = tested on: SK-MEL-2
OVCAR-5 = tested on: OVCAR-5
OVCAR-3 = tested on: OVCAR-3
HT-29 = tested on: HT-29
CCRF-CEM = tested on: CCRF-CEM
786-0 = tested on: 786-0
IGROV-1 = tested on: IGROV-1
A549 = tested on: A549
SF-295 = tested on: SF-295

Measured: GI50

Cc1ccc(NC(=O)CSc2nnc(Cc3ccccc3)o2)cc1
inactive: UACC-257 > 100 µM | NCI-H522 > 100 µM | U-251 > 100 µM | SNB-19 > 100 µM | Malme-3M > 100 µM | HCC 2998 > 100 µM | SK-MEL-2 > 100 µM | OVCAR-5 > 100 µM | OVCAR-3 > 100 µM | HT-29 > 100 µM | CCRF-CEM > 100 µM | 786-0 > 100 µM | IGROV-1 > 100 µM | A549 > 100 µM | SF-295 > 100 µM

CCOC(=O)c1c(NNc2ccccc2)nc2ccccc2c1-c1ccccc1
inactive: UACC-257 29.7 µM | NCI-H522 30.1 µM | U-251 34.4 µM | SNB-19 41.8 µM | Malme-3M 29.1 µM | HCC 2998 55 µM | SK-MEL-2 17.2 µM | OVCAR-5 56.1 µM | OVCAR-3 21.1 µM | HT-29 32.3 µM | CCRF-CEM 10.9 µM | 786-0 31.7 µM | IGROV-1 42.4 µM | A549 34.5 µM | SF-295 42.6 µM

COC(=O)C(=O)Cc1nc2ccccc2s1
inactive: UACC-257 > 100 µM | NCI-H522 > 100 µM | U-251 > 100 µM | SNB-19 > 100 µM | Malme-3M > 100 µM | HCC 2998 > 100 µM | SK-MEL-2 > 100 µM | OVCAR-5 > 100 µM | OVCAR-3 > 100 µM | HT-29 > 100 µM | CCRF-CEM > 100 µM | 786-0 > 100 µM | IGROV-1 > 100 µM | A549 > 100 µM | SF-295 > 100 µM

Cc1ccc(S(=O)(=O)NC(C)C(=O)O)cc1 (centres undefined)
inactive: UACC-257 > 100 µM | NCI-H522 > 100 µM | U-251 > 100 µM | SNB-19 > 100 µM | Malme-3M > 100 µM | HCC 2998 > 100 µM | SK-MEL-2 > 100 µM | OVCAR-5 > 100 µM | OVCAR-3 > 100 µM | HT-29 > 100 µM | 786-0 > 100 µM | IGROV-1 > 100 µM | A549 > 100 µM | SF-295 > 100 µM

COc1cc2ccc3c4cc(OC)c(OCc5ccccc5)cc4cnc3c2cc1OC
inactive: UACC-257 > 100 µM | NCI-H522 > 100 µM | U-251 > 100 µM | Malme-3M > 100 µM | HCC 2998 > 100 µM | SK-MEL-2 > 100 µM | OVCAR-5 > 100 µM | OVCAR-3 > 100 µM | HT-29 > 100 µM | CCRF-CEM > 100 µM | 786-0 > 100 µM | IGROV-1 > 100 µM | A549 > 100 µM | SF-295 > 100 µM

Cn1c(O)c(C(=O)NC2CCCCC2)c(=O)n(C)c1=S
inactive: UACC-257 6.27 µM | NCI-H522 3.58 µM | U-251 4.51 µM | SNB-19 7.11 µM | SK-MEL-2 5.11 µM | OVCAR-5 14.5 µM | OVCAR-3 4.93 µM | CCRF-CEM 5.83 µM | 786-0 6.15 µM | IGROV-1 4.89 µM | A549 3.3 µM | SF-295 3.23 µM

CCNc1nnc(CSc2nc(-c3ccccc3)c(-c3ccccc3)[nH]2)s1
inactive: UACC-257 17.3 µM | NCI-H522 19.9 µM | U-251 13.7 µM | SNB-19 16.7 µM | Malme-3M 21.5 µM | SK-MEL-2 20.8 µM | OVCAR-5 21.4 µM | OVCAR-3 20.6 µM | HT-29 19.6 µM | CCRF-CEM 18.3 µM | 786-0 24.4 µM | A549 28.7 µM | SF-295 17.7 µM

CCc1cccc(CC)c1NC(=O)C1=CNC(C)=C(C(=O)Nc2c(CC)cccc2CC)C1c1ccc(O)c(OC)c1 (centres undefined)
inactive: UACC-257 28.2 µM | NCI-H522 26.4 µM | U-251 12.4 µM | SNB-19 54.1 µM | Malme-3M 28.1 µM | HCC 2998 47.4 µM | SK-MEL-2 26.2 µM | OVCAR-5 54.8 µM | OVCAR-3 19 µM | HT-29 31.1 µM | CCRF-CEM 21.5 µM | 786-0 34.4 µM | IGROV-1 36.8 µM | A549 31.6 µM | SF-295 29 µM

O=C1CC(c2c(-c3ccccc3)[nH]c3ccccc23)C(=O)N1 (centres undefined)
inactive: UACC-257 > 100 µM | U-251 > 100 µM | Malme-3M > 100 µM | HCC 2998 > 100 µM | SK-MEL-2 > 100 µM | OVCAR-5 > 100 µM | OVCAR-3 > 100 µM | HT-29 > 100 µM | CCRF-CEM > 100 µM | 786-0 > 100 µM | IGROV-1 > 100 µM | A549 > 100 µM | SF-295 > 100 µM

O=C1C=CC(S(=O)(=O)C2=C/C(=C/Nc3ccc(Cl)cc3)C(=O)C=C2)=C/C1=C/Nc1ccc(Cl)cc1
inactive: UACC-257 > 100 µM | NCI-H522 > 100 µM | U-251 > 100 µM | SNB-19 > 100 µM | Malme-3M > 100 µM | HCC 2998 > 100 µM | SK-MEL-2 > 100 µM | OVCAR-5 > 100 µM | OVCAR-3 > 100 µM | HT-29 > 100 µM | CCRF-CEM > 100 µM | 786-0 > 100 µM | IGROV-1 > 100 µM | A549 > 100 µM | SF-295 > 100 µM

FC(F)(F)C12C34C=CC5(CCC6(C=CC1(CC3)O6)C52C(F)(F)F)O4 (centres undefined)
inactive: UACC-257 > 100 µM | NCI-H522 > 100 µM | U-251 > 100 µM | SNB-19 > 100 µM | Malme-3M > 100 µM | HCC 2998 > 100 µM | SK-MEL-2 > 100 µM | OVCAR-5 > 100 µM | OVCAR-3 > 100 µM | HT-29 > 100 µM | CCRF-CEM > 100 µM | 786-0 > 100 µM | IGROV-1 > 100 µM | A549 > 100 µM | SF-295 > 100 µM

Nc1ccc(-c2cc(C(=O)Nc3nccs3)nc(S)n2)cc1
inactive: UACC-257 > 100 µM | NCI-H522 > 100 µM | U-251 > 100 µM | SNB-19 > 100 µM | Malme-3M > 100 µM | SK-MEL-2 > 100 µM | OVCAR-5 > 100 µM | OVCAR-3 > 100 µM | HT-29 > 100 µM | CCRF-CEM > 100 µM | 786-0 > 100 µM | IGROV-1 > 100 µM | A549 > 100 µM

CCOc1ccccc1NC(=O)CCc1nnc2s/c(=C\CCc3ccccc3)c(=O)n12
inactive: UACC-257 > 100 µM | NCI-H522 > 100 µM | U-251 > 100 µM | SNB-19 > 100 µM | Malme-3M > 100 µM | HCC 2998 > 100 µM | SK-MEL-2 > 100 µM | OVCAR-5 > 100 µM | OVCAR-3 > 100 µM | HT-29 > 100 µM | CCRF-CEM > 100 µM | 786-0 > 100 µM | IGROV-1 > 100 µM | A549 > 100 µM | SF-295 > 100 µM

CN1C(=O)N(C)C(N2CCCC2)c2c1nc1ccccn1c2=O (centres undefined)
inactive: UACC-257 50.7 µM | NCI-H522 61 µM | U-251 70.5 µM | SNB-19 99.5 µM | Malme-3M > 100 µM | HCC 2998 76.9 µM | SK-MEL-2 29.7 µM | OVCAR-3 77.3 µM | HT-29 > 100 µM | CCRF-CEM 37.6 µM | 786-0 97.9 µM | IGROV-1 > 100 µM | A549 > 100 µM | SF-295 > 100 µM

Cn1c(N)[n+](C(=O)OCc2ccccc2)c(=O)c2c1ncn2C(=O)OCc1ccccc1
inactive: UACC-257 > 100 µM | NCI-H522 30.9 µM | U-251 9.82 µM | SNB-19 30.8 µM | Malme-3M > 100 µM | HCC 2998 > 100 µM | SK-MEL-2 > 100 µM | OVCAR-5 > 100 µM | OVCAR-3 > 100 µM | HT-29 > 100 µM | CCRF-CEM > 100 µM | 786-0 30.1 µM | IGROV-1 > 100 µM | A549 73.1 µM | SF-295 49.5 µM

COCN1COCN/C1=N\C#N
inactive: UACC-257 > 100 µM | NCI-H522 > 100 µM | U-251 > 100 µM | SNB-19 > 100 µM | Malme-3M > 100 µM | HCC 2998 > 100 µM | SK-MEL-2 > 100 µM | OVCAR-5 > 100 µM | OVCAR-3 > 100 µM | HT-29 > 100 µM | 786-0 > 100 µM | IGROV-1 > 100 µM | A549 > 100 µM | SF-295 > 100 µM

CC(CCCOC(c1ccccc1)(c1ccccc1)c1ccccc1)OC(=O)Nc1cc([N+](=O)[O-])cc([N+](=O)[O-])c1 (centres undefined)
inactive: UACC-257 24.3 µM | NCI-H522 23.7 µM | U-251 36.9 µM | SNB-19 57.5 µM | Malme-3M 27.6 µM | HCC 2998 35.6 µM | SK-MEL-2 29.4 µM | OVCAR-3 33.3 µM | HT-29 28.2 µM | CCRF-CEM 32.4 µM | 786-0 28.2 µM | IGROV-1 30.9 µM | A549 31.6 µM | SF-295 27 µM

CC(=O)OC[C@]1(C)CCCC2(C)C1CCC1C=C(C)[C@H]3CCC12C3 (some centres undefined)
inactive: UACC-257 61.7 µM | NCI-H522 10.6 µM | U-251 39.7 µM | SNB-19 > 100 µM | Malme-3M > 100 µM | HCC 2998 > 100 µM | OVCAR-5 > 100 µM | OVCAR-3 61.4 µM | HT-29 43.3 µM | CCRF-CEM > 100 µM | 786-0 66.2 µM | IGROV-1 > 100 µM | A549 65.2 µM | SF-295 35 µM

CC(=O)OC1C/C(C)=C/[C@H](O)CC(C)/C=C/[C@@]2(C)CCC(C(C)(C)O)C12 (some centres undefined)
inactive: UACC-257 > 100 µM | U-251 > 100 µM | SNB-19 > 100 µM | Malme-3M > 100 µM | HCC 2998 > 100 µM | SK-MEL-2 > 100 µM | OVCAR-5 > 100 µM | OVCAR-3 > 100 µM | HT-29 > 100 µM | CCRF-CEM > 100 µM | 786-0 > 100 µM | IGROV-1 > 100 µM | A549 > 100 µM | SF-295 > 100 µM
